What was measured:
[1] = test system: ER3M-VP16 fusion proteins (N-79, N-129, C-79, C-129); assay: ATL8/PAL-LUC transactivation with CMV-driven ER3M-VP16 fusion proteins in HepG2 cells; assay type: cell-based, human; conditions: 10 nM ICI 182,780, no OHT
From the text: These fragments were digested with KpnI and BamHI and then purified from agarose gels. […] To create C-129, this ER fragment was digested with XbaI and KpnI and then cloned together with the DNA fragment containing 129 amino acids of VP16 into 5.9 kb vector generated by digestion of CMV-hER with XbaI and BamHI. The same strategy was adopted to create C-79 using the DNA fragment containing 79 amino acids of VP16. Therefore, the expression of these chimeras is driven by the same CMV promoter as that of ER-3M. […] The amplified PCR product was digested with NcoI and NotI. […] This fragment and the NcoI/NotI PCR fragment were then inserted together into the 4.3 kb vector, pGL3-ATL8/PAL-LUC, which was created by digesting ATL8/PAL-LUC completely with NcoI and partially with XbaI so that the luciferase gene was replaced by N-79.

wild type hERα = molecular target: T1, wild type hERα (Homo sapiens, UniProt P03372, G400V); assay: Ligand-dependent luciferase reporter transactivation in transfected HepG2 cells; conditions: for MOX-dependent increase in luciferase activity: ATL2/cERE-LUC, 10 nM MOX
T1 sequence (P03372 1-595 G400V): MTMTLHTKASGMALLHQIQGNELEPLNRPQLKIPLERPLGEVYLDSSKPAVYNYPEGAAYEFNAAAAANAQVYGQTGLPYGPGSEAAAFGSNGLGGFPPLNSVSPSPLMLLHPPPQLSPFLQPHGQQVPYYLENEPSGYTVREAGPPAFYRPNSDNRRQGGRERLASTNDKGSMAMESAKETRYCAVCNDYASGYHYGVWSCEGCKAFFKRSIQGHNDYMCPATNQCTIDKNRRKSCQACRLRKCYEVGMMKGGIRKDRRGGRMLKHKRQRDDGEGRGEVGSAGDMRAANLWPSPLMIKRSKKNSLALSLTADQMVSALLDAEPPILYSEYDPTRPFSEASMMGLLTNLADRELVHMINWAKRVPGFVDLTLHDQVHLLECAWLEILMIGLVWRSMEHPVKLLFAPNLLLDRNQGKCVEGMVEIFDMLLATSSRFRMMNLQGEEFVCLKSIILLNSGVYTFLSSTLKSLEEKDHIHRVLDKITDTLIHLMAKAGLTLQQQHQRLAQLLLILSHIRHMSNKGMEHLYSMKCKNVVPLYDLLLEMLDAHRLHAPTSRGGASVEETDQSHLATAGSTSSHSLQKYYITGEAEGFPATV
Procedure: HepG2 human hepatoma cells were maintained in a humidified 5% CO2 incubator at 37° C. in Dulbecco's Modified Eagle's Medium (DMEM; Sigma; St. Louis, Mo.) supplemented with 10 % charcoal-dextran-stripped fetal bovine serum (CD-FBS; Atlanta Biologicals, Inc; Atlanta, Ga.), 50,000 U/l of penicillin, and 50 mg/liter streptomycin (Life Technologies, Inc.). MCF-7 cells were routinely maintained in DMEM/Nutrient Mixture F-12 (DMEM/F12) supplemented with 10% heat-inactived FBS, 50,000 U/l of penicillin, and 50 mg/l streptomycin. CHO-S cells were maintained in DMEM/F12 supplemented with 10% heat-inactivated FBS (CD-FBS when ERs were being expressed) or 10% CD-new born calf serum (CD-NBCS, when reporter activity by different ligands were measured), 29.2 mg/l L-glutamine (Sigma), and 50,000 U/l of penicillin and 50 mg/l streptomycin.
Transient transfections in HepG2 cells was accomplished using calcium phosphate co-precipitation (Ausubel et al., 1987). Briefly, cells were plated in 12-well microplates at a density of 1×10^5 cells/well. The next day, the medium was replaced, and 2–6 hours later, precipitated calcium phosphate:DNA co-crystals were added. After 12–16 hours, the cells were shocked for 3 minutes with 20% glycerol in Tris-buffered saline, pH 7.4. Fresh medium and (if any) hormones were added. For MCF-7 and 231 cells, transient transfection was carried out using the Tfx™-20 reagent (Promega; Madison, Wis.) according to the manufacturer's direction with minor changes. Briefly, 1×10^5 cells were plated in each well of 12-well microplates one day before transfection. A 1:3 ratio of DNA to lipid was used. The DMEM/F12 medium without serum was used as carrier for the DNA-lipid mixture. After 1 hour incubation with the DNA-lipid-DMEM/F12 at 37° C., the cells were transferred to fresh DMEM/F12 supplemented with 10% CD-FBS, 50,000 U/I of penicillin, 50 mg/l streptomycin and hormones. Transfection on CHO—S cells was described as above for the preparation of ERs extraction except the medium contained 10% CD-NBCS. The cells subjected to either transfection method were harvested 48 hours post-transfection. Reporter assays were performed by lysing the cells in situ with 250 μl of passive lysis buffer (Promega). Activity was determined using the dual luciferase assay protocol according to the manufacturer's directions (Promega) on a Monolight 2010 luminometer (Analytical Luminescence, San Diego, Calif.)
Transient transfections of HepG2 cells were carried out and luciferase activity determined.

cERE probe = assay: EMSA (gel mobility shift), ER binding to cERE probe; conditions: CHO-S extracts
Procedure: (§1) CHO—S cells (Life-Technologies; Grand Island, N.Y.) were transfected using Lipofectamine 2000 (Life-Technologies). Transfection was performed according to the manufacturer's instructions, except cells were grown in 6-well plates coated with 1 ml of 0.1 mg/mL polylysine for 24 hours at 37° C. prior to transfection. One μg of CMV-hERα and 3 μg of pTZ18U carrier DNA were used for each well; DNA:Lipofectamine 2000 was 1:3. 17β-estradiol was added to a final concentration of 10 nM 1 hour before harvest. Whole cell extracts were prepared as described (Zhang et al., 1996) with a modified extraction buffer (50 m-M Tris-HCl, pH 7.5, 1.5 mM EDTA, 10 mM Na2MoO4, 0.5 M NaCl, 10% glycerol, 0.5 mM β-mercaptoethanol, 50 μg/ml leupeptin, 1 μg/ml pepstatin and 5 μg/ml aprotinin).
(§2) Gel mobility shift assays were performed essentially as described [Zhang, 1999 #38]. Each 20 μl reaction contained 50 mM KCl, 15 mM Tris-HCl (pH 7.9), 4 mM dithiothreitol, 0.2 mM EDTA, 3 μg of poly(dIdC) and 10% glycerol; bovine serum albumin (BSA) was added to each sample for a total of 10 μg of protein. Free probe and protein-DNA complexes were quantitated using a phosphor imager and ImageQuant 5.0 (Molecular Dynamics, Inc., Sunnyvale, Calif.). The sequence of one DNA strand of each of the three probes (SEQ ID NOS:61–63) used for the gel mobility shift assays are presented in Table 31. The ERE or PAL sequences are underlined.
To compare binding of wild type hERα and the ER mutants to the EREs, protein titrations were performed. Increasing amounts of extracts containing equivalent levels of wild-type ER or ER mutants were incubated with the cERE. The ER:ERE complexes were then analyzed by EMSA. […] The mutants required 1.5–2.4-fold more extract to bind 50% of the cERE probe than wild-type ER. […] Even at the highest level of extract (8 μg), wild-type ER shifted only ˜15% of the pS2 probe.
FIG. 1 (Legend) A. Panel (i), Western blots of normalized whole cell extracts of wild type hERα and mutants from transfected CHO-S cells. Lane 1–13: mutants 4, 2, 57.1, 50.1, 15.3, wild type ER, 7.2, 6.2, 4.3, 3.1, 2.1, wild type, and 3M, respectively. Panel (ii), The three ERE sequences used in these studies. The nucleotides that differ from those in the consensus ERE (cERE) are underlined. Nucleotides in lower case lettering are less well conserved or not conserved in EREs. […] The data were calculated by PhosphorImager analysis. (B) The labeled cERE probe was incubated with 0.5, 1.0, 2.0 and 4.0 μg of whole cell extracts of wild type hERα, or extracts containing the mutant ERs normalized to contain the same amount of ER as the wild-type ER extract at each point. (C) Gel shift assays using the labeled pS2 ERE probes and increasing amounts (1.0, 2.0, 4.0 and 8.0 μg) of the whole cell extracts containing wild-type ER and each of the ER mutants. (D) Gel shift assays using the labeled pS2 palindrome ERE probe. The ER extract contained 2.0, 4.0 and 8.0 μg of whole cell extract (panel (i)), and 15 μg (panel (ii)). Lanes 1–7 (panel (ii)) represent wild type hERα, and mutants 3M, 3.1, 4.3, 6.2, 2 and 4, respectively. D (iii) contains a graph of the percentage of the labeled pS2 PAL probe shifted calculated by PhosphorImager analysis of the data in D(i) and D(ii).

[2] = test system: ATL2/pS2 ERE-LUC reporter in HepG2 cells; assay: MOX-dependent transactivation by wild-type and mutant ERs, transient transfection, luciferase reporter; assay type: cell-based, human; conditions: 10 nM MOX
[3] = test system: putative ERE in the Bcl2 gene; assay: EMSA, ER binding to putative ERE in the Bcl2 gene; conditions: summary statement
Procedure: as §2
It therefore seemed possible that binding of wild-type ER to the pS2 ERE is based on strong binding of one monomer of the ER dimer to the cERE half site (aGGTCA; SEQ ID NO: 65) and weak non-specific interaction of the other ER monomer with the sequence at the other half site. To test this possibility, binding of wild-type and the ER mutants to a putative ERE in the Bcl2 gene was examined. Like pS2, Bcl2 contains a cERE half site, but also contains a second, different half site that deviates from the consensus sequence by one nucleotide.

pS2 ERE probe = assay: EMSA (gel mobility shift), ER binding to pS2 ERE probe
Procedure: as §1, with “Whole cell extracts were prepared as described (Zhang et al., 1996) with a modified extraction buffer (50 m-M Tris-HCl, pH 7.5, 1.5 mM EDTA, 10 mM Na2MoO4, 0.5 M NaCl, 10% glycerol, 0.5 mM β-mercaptoethanol, 50 μg/ml leupeptin, 1 μg/ml pepstatin and 5 μg/ml aprotinin).” left out
(§3) Gel mobility shift assays were performed essentially as described [Zhang, 1999 #38]. […] Free probe and protein-DNA complexes were quantitated using a phosphor imager and ImageQuant 5.0 (Molecular Dynamics, Inc., Sunnyvale, Calif.). […]
To compare binding of wild type hERα and the ER mutants to the EREs, protein titrations were performed. […] The ER:ERE complexes were then analyzed by EMSA. […]
(§4) FIG. 1 (Legend) A. Panel (i), Western blots of normalized whole cell extracts of wild type hERα and mutants from transfected CHO-S cells. […] The data were calculated by PhosphorImager analysis. […] D (iii) contains a graph of the percentage of the labeled pS2 PAL probe shifted calculated by PhosphorImager analysis of the data in D(i) and D(ii).

pS2 PAL probe = assay: EMSA (gel mobility shift), ER binding to pS2 PAL probe
Procedure: as §1, §3, §4

[4] = test system: ATL2/PAL-LUC reporter in HepG2 cells; assay: MOX-dependent transactivation by wild-type and mutant ERs, transient transfection, luciferase reporter; assay type: cell-based, human; conditions: 10 nM MOX

| Compound | binding to cERE and pS2 ERE DNA probes (cERE probe) | activation of transcription from native pS2 ERE compared with wild-type ER [2] | further results |
| --- | --- | --- | --- |
| C[C@]12CC[C@@H]3c4ccc(O)cc4C[C@@H](CCCCCCCCC[S+]([O-])CCCC(F)(F)C(F)(F)F)[C@H]3[C@@H]1CC[C@@H]2O (some centres unmarked) [ICI 182,780] | – | – | effect on basal transactivation by the fusion proteins [1]: decreased |
| C#C[C@]1(O)CC[C@H]2[C@@H]3CCc4cc(O)ccc4[C@H]3[C@@H](OC)C[C@@]21C [MOX, moxestrol] | – | – | transactivation level on two copies of pS2 PAL (wild type hERα; ATL2/PAL-LUC, 10 nM ligand): undetectable; MOX-dependent increase in luciferase activity (wild type hERα; 0.75 ng expression plasmid): 32 fold; MOX-dependent increase in luciferase activity (wild type hERα; 2.5 ng expression plasmid): 41 fold |
| ER2.1: ERα DNA binding domain mutant, SEQ ID NO:16 (WSCKAFFKRSIAGGNDY; Mutant DBD of ER) | little or no binding | – | – |
| ER2: ERα DNA binding domain mutant, SEQ ID NO:12 (WGCKAFFKRSIARHNDY; Mutant DBD of ER) | – | less effective | – |
| ER3.1: ERα DNA binding domain mutant, SEQ ID NO:6 (WGCKAFFKRSINRHNSY; Mutant DBD of ER) | – | less effective | – |
| ER3M: ERα DNA binding domain mutant, residues 203–219 as SEQ ID NO:4 (WGCKAFFKRSIAGGNDY; Mutant DBD of ER) | – | more effectively than wild-type ER | binding to, or transcription from, the Bcl2 and TGF α1 EREs [3]: no detectable binding to, or transcription from |
| ER4.3: ERα DNA binding domain mutant, SEQ ID NO:8 (WGCKAFFKRSIVRPTDY; Mutant DBD of ER) | – | more effectively than wild-type ER | binding to, or transcription from, the Bcl2 and TGF α1 EREs [3]: no detectable binding to, or transcription from |
| ER4: ERα DNA binding domain mutant, SEQ ID NO:14 (WGCKAFFKRSIARGNDY; Mutant DBD of ER) | – | more effectively than wild-type ER | – |
| ER6.2: ERα DNA binding domain mutant, SEQ ID NO:10 (EGCKAFFKRSIARRLDY; Mutant DBD of ER) | – | less effective | change in binding to pS2 ERE probe compared with cERE (pS2 ERE probe): dramatic decrease in binding; binding to pS2 PAL (pS2 PAL probe): negligible binding; ability to activate transcription of the pS2 PAL reporter [4]: little or no ability to activate transcription |
| ER7.2: ERα DNA binding domain mutant, SEQ ID NO:18 (EGCKAFFKRSIQRHPRY; Mutant DBD of ER) | little or no binding | – | – |
| ER15.3: ERα DNA binding domain mutant, SEQ ID NO:20 (ESCKAFFKRSIGGHNYY; Mutant DBD of ER) | little or no binding | – | – |
| ER50.1: ERα DNA binding domain mutant, SEQ ID NO:22 (WSCKGFFKRSKQGHNDY; Mutant DBD of ER) | little or no binding | – | – |
| ER57.1: ERα DNA binding domain mutant, SEQ ID NO:24 (WSCKGFFKRSIKGVPTY; Mutant DBD of ER) | little or no binding | – | – |

Source: patent publication US7153685B2 (The Board of Trustees of the University of Illinois, priority 2002, dated 2006)
